Assay results taken from article PMC6035175, “Ternary complex of Kif2A-bound tandem tubulin heterodimers represents a kinesin-13-mediated microtubule depolymerization reaction intermediate” (Nature Communications, 2018).
One block for each molecule: values may come before it.

Assays:
Kif2A-MD = biological target: T1, Kif2A-MD (Homo sapiens, UniProt O00139); experiment: malachite green phosphate release ATPase assay; type: biochemical; conditions: tubulin- or microtubule-stimulated; BRB80-based buffer pH 6.8, 1 mM MgCl2, 75 mM KCl; without DARPin
T1 construct: motor domain without most of the neck, residues 203-554, pGex-6P1, PreScission-cleaved GST fusion; 1:1 complex with tubulin; with Tubulin alpha chain (Bos taurus, brain); Tubulin beta chain (Bos taurus, brain)
T1 sequence (O00139 203-554): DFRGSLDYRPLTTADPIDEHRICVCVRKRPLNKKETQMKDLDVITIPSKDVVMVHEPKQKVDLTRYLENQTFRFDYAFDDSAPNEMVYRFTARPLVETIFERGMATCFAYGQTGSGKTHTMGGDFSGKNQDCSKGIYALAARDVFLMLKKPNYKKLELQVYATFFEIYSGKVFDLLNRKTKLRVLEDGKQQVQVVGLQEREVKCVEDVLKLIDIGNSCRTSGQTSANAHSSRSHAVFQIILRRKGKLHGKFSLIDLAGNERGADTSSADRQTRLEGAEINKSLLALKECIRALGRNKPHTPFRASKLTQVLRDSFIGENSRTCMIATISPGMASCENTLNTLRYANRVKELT
T1 sequence (P81947 whole entry partner, the tested form may be a part): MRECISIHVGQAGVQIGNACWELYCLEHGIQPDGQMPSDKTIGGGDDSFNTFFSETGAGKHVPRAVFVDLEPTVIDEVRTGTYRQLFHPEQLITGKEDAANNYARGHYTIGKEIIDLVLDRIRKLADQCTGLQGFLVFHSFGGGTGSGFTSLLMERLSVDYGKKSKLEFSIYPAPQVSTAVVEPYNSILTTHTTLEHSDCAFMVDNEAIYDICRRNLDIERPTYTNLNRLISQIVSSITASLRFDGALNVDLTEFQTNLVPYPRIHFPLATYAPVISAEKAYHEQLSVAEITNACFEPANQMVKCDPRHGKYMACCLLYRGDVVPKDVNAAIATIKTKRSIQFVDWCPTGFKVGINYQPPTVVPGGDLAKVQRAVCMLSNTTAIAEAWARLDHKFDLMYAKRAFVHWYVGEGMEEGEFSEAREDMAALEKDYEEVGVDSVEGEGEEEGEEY
T1 sequence (Q6B856 whole entry partner, the tested form may be a part): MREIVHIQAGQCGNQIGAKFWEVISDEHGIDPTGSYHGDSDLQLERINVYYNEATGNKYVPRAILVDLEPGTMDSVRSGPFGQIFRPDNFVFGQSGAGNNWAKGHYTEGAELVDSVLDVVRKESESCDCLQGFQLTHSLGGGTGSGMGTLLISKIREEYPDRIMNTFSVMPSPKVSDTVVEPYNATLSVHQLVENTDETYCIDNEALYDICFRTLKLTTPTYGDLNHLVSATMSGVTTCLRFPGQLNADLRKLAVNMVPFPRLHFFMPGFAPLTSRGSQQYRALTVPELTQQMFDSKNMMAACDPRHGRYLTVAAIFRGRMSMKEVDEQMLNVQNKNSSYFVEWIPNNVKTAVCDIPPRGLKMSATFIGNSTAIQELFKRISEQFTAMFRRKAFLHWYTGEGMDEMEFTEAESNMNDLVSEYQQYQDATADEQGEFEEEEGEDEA

Kif2A-NM = biological target: T2, Kif2A-NM (Homo sapiens, UniProt O00139); experiment: malachite green phosphate release ATPase assay; type: biochemical; conditions: tubulin- or microtubule-stimulated; BRB80-based buffer pH 6.8, 1 mM MgCl2, 75 mM KCl; without DARPin
T2 construct: neck plus motor domain, residues 153-553, monomer, 48 kDa, His-tagged, from E. coli BL21(DE3) pLysS; studied with bovine brain tubulin (1:2 complex), crystal also holds DARPin D1; full length 706 residues; with Tubulin alpha chain (Bos taurus, brain); Tubulin beta chain (Bos taurus, brain)
T2 sequence (O00139 153-553): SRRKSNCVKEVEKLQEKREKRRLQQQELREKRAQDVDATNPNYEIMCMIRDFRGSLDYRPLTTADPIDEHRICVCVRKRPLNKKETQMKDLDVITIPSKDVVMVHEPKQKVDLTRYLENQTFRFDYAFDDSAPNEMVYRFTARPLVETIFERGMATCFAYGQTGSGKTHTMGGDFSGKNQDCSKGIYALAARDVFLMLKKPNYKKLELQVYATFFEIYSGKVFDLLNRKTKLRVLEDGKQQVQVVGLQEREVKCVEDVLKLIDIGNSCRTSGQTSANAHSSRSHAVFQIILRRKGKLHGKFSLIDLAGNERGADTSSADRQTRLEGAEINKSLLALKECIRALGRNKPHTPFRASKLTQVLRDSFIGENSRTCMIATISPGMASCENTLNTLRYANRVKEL
T2 sequence (P81947 whole entry partner, the tested form may be a part): as the sequence (P81947 whole entry partner, the tested form may be a part) above
T2 sequence (Q6B856 whole entry partner, the tested form may be a part): as the sequence (Q6B856 whole entry partner, the tested form may be a part) above

[1] = biological target: αβ-tubulin heterodimer from bovine brain (bovine) (UniProt Q6B856); experiment: SEC-SAXS; in-line Superdex 200 10/300 GL, 20 mM HEPES, 150 mM NaCl, 1 mM MgCl2, pH 7.2; 25 μM tubulin, 27 μM DARPin, 20 μM Kif2A-NM, 0.1 mM AMPPNP; 270 kDa peak; 22 °C
[2] = biological target: αβ-tubulin heterodimer from bovine brain (bovine) (UniProt Q6B856); experiment: not stated; Kif2A-MD with tubulin, shown in Supplementary Figure 6; method not given

Sequence of Kif2A-MD (human Kif2A motor domain without the neck, residues 203–554) (O00139 203-554): as the sequence (O00139 203-554) above
Sequence of Kif2A-NM (human Kif2A neck plus motor domain, residues 153–553) (O00139 153-553): as the sequence (O00139 153-553) above

Molecule: Nc1ncnc2c1ncn2[C@@H]1O[C@H](COP(=O)(O)OP(=O)(O)OP(=O)(O)O)[C@@H](O)[C@H]1O [ATP]
ATP turnover rate (Kif2A-MD): ATP turnover rates of Kif2A-NM (orange) and Kif2A-MD (gray) in the presence of tubulin | ATP turnover rate (Kif2A-NM): ATP turnover rates of Kif2A-NM (orange) and Kif2A-MD (gray) in the presence of tubulin

stoichiometry N (αβ-tubulin dimers per Kif2A-NM) [1]: 2
Molecule: Kif2A-NM (human Kif2A neck plus motor domain, residues 153–553) (from UniProt O00139 153-553) (domain or fragment)

stoichiometry N (Kif2A-MD per tubulin dimer (1:1)) [2]: 1
Molecule: Kif2A-MD (human Kif2A motor domain without the neck, residues 203–554) (from UniProt O00139 203-554) (domain or fragment)
